# Measurements published in patent US8101766B2, “Crystalline form of a biphenyl compound” (Theravance, Inc., priority 2004, dated 2012).
# What was measured:
# [1] = Dynamic moisture sorption (DMS) assessment; format: physicochemical; conditions: for deliquescence: exposed to atmospheric moisture / DMS
# Method: Dynamic Moisture Sorption Assessment
# A dynamic moisture sorption (DMS) assessment (also known as a moisture sorption-desorption profile) was performed for a hand ground sample of a crystalline 1,2-ethanedisulfonic acid salt of biphenyl-2-ylcarbamic acid 1-[2-(2-chloro-4-{[(R)-2-hydroxy-2-(8-hydroxy-2-oxo-1,2-dihydroquinolin-5-yl)ethylamino]methyl}-5-methoxyphenylcarbamoyl)ethyl]piperidin-4-yl ester of Preparation 18 using a VTI atmospheric microbalance, SGA-100 system (VTI Corp., Hialeah, Fla. 33016). A sample size of approximately 10 mg was used and the humidity was set at the ambient value at the start of the analysis. A typical DMS analysis consisted of three scans: ambient to 2% relative humidity (RH), 2% RH to 90% RH, 90% RH to 5% RH at a scan rate of 5% RH/step. The mass was measured every two minutes and the RH was changed to the next value (+/−5% RH) when the mass of the sample was stable to within 0.01% for 5 consecutive points.
# [2] = Thermal analysis (DSC and TGA); format: physicochemical; conditions: DSC traces, samples of Example 6 and Example 2
# Method: Differential scanning calorimetry (DSC) was performed using a TA Instruments Model Q-10 module with a Thermal Analyst controller. Data were collected and analyzed using TA Instruments Thermal Solutions software. A sample of about 1 mg was accurately weighed into an aluminum pan with lid. The sample was evaluated using a linear heating ramp of 5° C./min from ambient temperature to approximately 300° C. The DSC cell was purged with dry nitrogen during use. A representative DSC trace for a sample of a crystalline 1,2-ethanedisulfonic acid salt of biphenyl-2-ylcarbamic acid 1-[2-(2-chloro-4-{[(R)-2-hydroxy-2-(8-hydroxy-2-oxo-1,2-dihydroquinolin-5-yl)ethylamino]methyl}-5-methoxyphenylcarbamoyl)ethyl]piperidin-4-yl ester of Example 6 is shown in FIG. 1 and a representative DSC trace for a sample of Example 2 is shown in FIG. 2.
# Thermogravimetric analysis (TGA) was performed using a TA Instruments Model Q-50 module equipped with high resolution capability. Data were collected and analyzed using TA Instruments Thermal Solutions software. A sample weighing about 10 mg was placed onto a platinum pan and scanned with a high resolution-heating rate from ambient temperature to 300° C. The balance and furnace chambers were purged with nitrogen flows during use. […]
substance,measurement,setting,value
"Biphenyl-2-ylcarbamic Acid 1-[2-(2-Chloro-4-{[(R)-2-hydroxy-2-(8-hydroxy-2-oxo-1,2-dihydroquinolin-5-yl)ethylamino]methyl}-5-methoxyphenylcarbamoyl)-ethyl]piperidin-4-yl Ester 1,2-Ethanedisulfonic Acid Salt",sorption/desorption profile,[1]; DMS,reversible
same,hygroscopicity,"[1]; DMS trace, scans 2% RH to 90% RH, hand ground sample of Preparation 18",< 9%
same,deliquescence,[1],not deliquescent
same,deliquescence,"[1]; listed as crystalline 1,2-ethanedisulfonic acid salts of the compound of formula I",not to be deliquescent
same,weight gain,[1]; humidity range of 40% RH to 75% RH,less than 2.5%
same,thermal stability: temperature below which no thermal decomposition,[2],≥ 200 °C
